Source: patent publication US7985774B2, “Use of 3,5-seco-4-nor-cholestane derivatives for obtaining a cytoprotective drug” (Trophos, priority 2006, dated 2011)

Assays:
CD1 mice = test: Acute hepatotoxicity: lethal intoxication by the Jo2 antibody (survival); format: in vivo; settings: for Survival rate: 24 hrs
Experimental: Male adult CD1 mice from the breeder “Elevage Janvier”, (Le Genest-Saint-Isle, France) were used. The animals were identified individually and had free access to water and food.
A stock solution of monoclonal hamster anti-mouse CD95 (Fas) antibody, called Jo2, from Pharmingen (BD Biosciences, ref. 554254 batch 32699) is prepared at a concentration of 1 mg/mL in water. The dilutions used are made in 0.9% sodium chloride in water.
The desired amount of 3,5-seco-4-nor-cholestan-5-one oxime-3-ol is weighed and milled into a fine powder, and then mixed with Cremophore EL (Sigma C5135) and absolute ethanol (Carlo Erba RPE 41571) (5% and 10% of the final volume, respectively). After complete dissolution, 0.9% sodium chloride in water is added extemporaneously (85% of the final volume).
In this experiment, the effect of 3,5-seco-4-nor-cholestan-5-one oxime-3-ol on the survival of animals after administering a lethal dose of the Jo2 antibody is evaluated.
The Jo2 antibody is administered by intraperitoneal injection at a dose of 200 ou 250 μg/kg in a volume of 5 mL/kg of body weight.
3,5-seco-4-nor-cholestan-5-one oxime-3-ol is tested at 10 and 30 mg/kg, as a pretreatment, 1 hr before administering Jo2 or as a post-treatment, 1 hr after administering Jo2.
A control is obtained with animals receiving pretreatment by intraperitoneal administration, 1 hr before or 1 hr after administering the antibody, of an identical volume of solution having been used for preparing the compound to be tested, without the compound.

[1] = test system: rabbit ventricular cardiomyocytes; test: Annexin V marking of phosphatidylserine (apoptosis) after doxorubicin; format: cell-based; settings: 3 hrs after doxorubicin, control 100%
Experimental: Isolated ventricular cells are obtained from hearts of male New Zealand rabbits as described in A. d'Anglemont de Tassigny et al., Fund. Clin. Pharmacol, 18: 531-38, 2004. Briefly, the rabbits (2.0-2.5 kg) are anaesthetized with a pentobarbital solution (50 mg/kg) and they then receive heparin (200 IU/kg). The hearts are excised and immediately perfused, for 10-15 minutes by means of a Langendorff apparatus without recirculation with an oxygenated tyrode (calcium-free) isotonic solution (95%, 2-5% CO2) (in mM: NaCl 135, KCl 5.4, Na2PO4 0.33, MgCl2 1.0, HEPES 10, pH adjusted to 7.4 with 1N NaOH at 37° C., 280-300 mOsmol/kgH2O). Next, all the hearts are perfused for 3 minutes in the “recirculation” mode with the same calcium-free Tyrode solution (coronary flow rate, 10-15 mL/min) added with 1 mg/mL of type II collagenase and 0.28 mg/mL of XIV type protease. Finally, all the hearts are perfused in a mode without any recirculation with the same solution of Tyrode supplemented with 0.3 mM of CaCl2 for 10 min. The left ventricle is removed and cut into small pieces; cell dissociation is achieved by mild mechanical stirring. Extracellular calcium is added by increments every 15 minutes, in order to reach a physiological concentration of 1.0 mM. […]
Annexin V marking of phosphatidylserine was used as a quantitative method for measuring apoptosis by using the MiniMacs cell isolation kit (Miltenyi Biotec, Bergisch, Gladbach, Germany). […] The column is removed from the magnetic field, the cells exposing phosphatidylserine, magnetically retained, are eluted as a positive fraction and counted with a Mallassez cell counter. […]
Apoptosis is induced in isolated cardiomyocytes by 3-8 hour exposure to 1 μM of doxorubicin added into an isotonic solution containing (in mM) NaCl 110, KCl 5.4, Na2PO4 0.33, NaHCO3 25, glucose 5, MgCl2 0.8, CaCl2 1, pH adjusted to 7.4. […] The contractility of cardiomyocytes was measured every hour during the 8 hrs of exposure to doxorubicin. […]

SMILES: CC(C)CCC[C@@H](C)[C@H]1CC[C@H]2[C@@H]3CC/C(=N\O)[C@](C)(CCCO)[C@H]3CC[C@]12C [3,5-seco-4-nor-cholestan-5-one oxime-3-ol]
- Survival rate (CD1 mice; Experience 5: Jo2 200 μg/kg, 10 mg/kg post-treatment, control 30): 60%
- Mortality (24 hrs)/total number of animals (CD1 mice; Experience 5: Jo2 200 μg/kg, 10 mg/kg post-treatment, control 14/20): 8/20
- Survival rate (CD1 mice; Experience 6: Jo2 200 μg/kg, 30 mg/kg post-treatment, control 20): 60%
- Mortality (24 hrs)/total number of animals (CD1 mice; Experience 6: Jo2 200 μg/kg, 30 mg/kg post-treatment, control 16/20): 8/20
- Survival rate (CD1 mice; Experiment 1: Jo2 250 μg/kg, 10 mg/kg pretreatment, control 25): 65%
- Mortality (24 hrs)/total number of animals (CD1 mice; Experiment 1: Jo2 250 μg/kg, 10 mg/kg pretreatment, control 15/20): 7/20
- Survival rate (CD1 mice; Experiment 2: Jo2 250 μg/kg, 30 mg/kg pretreatment, control 10): 90%
- Mortality (24 hrs)/total number of animals (CD1 mice; Experiment 2: Jo2 250 μg/kg, 30 mg/kg pretreatment, control 18/20): 2/20
- Survival rate (CD1 mice; Experiment 3: Jo2 250 μg/kg, 10 mg/kg post-treatment, control 10): 15%
- Mortality (24 hrs)/total number of animals (CD1 mice; Experiment 3: Jo2 250 μg/kg, 10 mg/kg post-treatment, control 18/20): 17/20
- Survival rate (CD1 mice; Experiment 4: Jo2 250 μg/kg, 30 mg/kg post-treatment, control 5): 35%
- Mortality (24 hrs)/total number of animals (CD1 mice; Experiment 4: Jo2 250 μg/kg, 30 mg/kg post-treatment, control 19/20): 13/20
- Apoptosis as % of change in annexin V marking ([1]; doxorubicin 1 μM + compound 0.1 μM): 116.3%
- Apoptosis as % of change in annexin V marking ([1]; doxorubicin 1 μM + compound 0.3 μM): 137.3%
